Experimental data reported in patent US6956037B2, “Benzamide derivatives for the treatment of diseases mediated by cytokines” (AstraZeneca AB, priority 1998, dated 2005).

Legend:
[1] = target: T1, p38α (Homo sapiens, UniProt Q16539); assay: In vitro enzyme assay, p38 kinase inhibition; type: biochemical; conditions: read-out: IC50 against p38α
T1 construct: c-myc (N); 6His (N); made in house; host or cells: E. coli (PET vectors)
Protocol: The ability of compounds of the invention to inhibit the enzyme p38 kinase was assessed. Activity of test compounds against each of the p38α and p38β isoforms of the enzyme was determined. […]
Test compounds were solubilised in DMSO and 10 μl of a 1:10 diluted sample in ‘Kinase Buffer’ was added to a well in a Microtiter plate. […] The precipitated protein was phosphorylated by p38 kinase and test compounds were assessed for their ability to inhibit this phosphorylation. The plates were filtered using a Canberra Packard Unifilter and washed with 2% TCA, dried overnight and counted on a Top Count scintillation counter.
Test compounds were tested initially at a single dose and active compounds were retested to allow IC50 values to be determined.

[2] = tested on: TNFα production by human peripheral blood mononuclear cells; assay: PBMC test: inhibition of LPS-stimulated TNFα production; type: cell-based
Protocol: The ability of compounds of this invention to inhibit TNFα production was assessed by using human peripheral blood mononuclear cells which synthesise and secrete TNFα when stimulated with lipopolysaccharide.
Peripheral blood mononuclear cells (PBMC) were isolated from heparinised (10 units/ml heparin) human blood by density centrifugation (Lymphoprep™; Nycomed). Mononuclear cells were resuspended in culture medium [RPMI 1640 medium (Gibco) supplemented with 50 units/ml penicillin, 50 μg/ml streptomycin, 2 mM glutamine and 1% heat-inactivated human AB serum (Sigma H-1513)]. Compounds were solubilised in DMSO at a concentration of 50 mM, diluted 1:100 in culture medium and subsequently serial dilutions were made in culture medium containing 1% DMSO. PBMCs (2.4×10^5 cells in 160 μl culture medium) were incubated with 20 μl of varying concentrations of test compound (triplicate cultures) or 20 μl culture medium containing 1% DMSO (control wells) for 30 minutes at 37° C. in a humidified (5% CO2/95% air) incubator (Falcon 3072; 96 well flat-bottom tissue culture plates). […] TNFα levels were determined in each sample using a human TNFα ELISA (see WO92/10190 and Current Protocols in Molecular Biology, vol 2 by Frederick M/Ausbel et al., John Wiley and Sons Inc.). […]

[3] = tested on: TNFα production by human whole blood; assay: Human Whole Blood test: inhibition of LPS-stimulated TNFα production; type: cell-based
Protocol: The ability of the compounds of this invention to inhibit TNFα production was also assessed in a human whole blood assay. Human whole blood secretes TNFα when stimulated with LPS. This property of blood forms the basis of an assay which is used as a secondary test for compounds which profile as active in the PBMC test.
Heparinised (10 units/ml) human blood was obtained from volunteers. 160 μl whole blood were added to 96 well round-bottom plates (Corning 25850). Compounds were solubilised and serially diluted in RPMI 1640 medium (Gibco) supplemented with 50 units/ml penicillin 50 μg/ml streptomycin and 2 mM glutamine, as detailed above. 20 μl of each test concentration was added to appropriate wells (triplicate cultures). 20 μl of RPMI 1640 medium supplemented with antibiotics and glutamine was added to control wells. Plates were incubated for 30 minutes at 37° C. (humidified incubator), prior to addition of 20 μl LPS (final concentration 10 μg/ml). RPMI 1640 medium was added to control wells. Six “LPS alone” and four “medium alone” controls were included on each plate. A known TNFα synthesis/secretion inhibitor was included in each test. Plates were incubated for 6 hours at 37° C. (humidified incubator). […] TNFα levels were measured by ELISA (see WO92/10190 and Current Protocols in Molecular Biology, vol 2 by Frederick M. Ausbel et al., John Wiley and Sons Inc.). […]

T1 sequence (Q16539 whole entry): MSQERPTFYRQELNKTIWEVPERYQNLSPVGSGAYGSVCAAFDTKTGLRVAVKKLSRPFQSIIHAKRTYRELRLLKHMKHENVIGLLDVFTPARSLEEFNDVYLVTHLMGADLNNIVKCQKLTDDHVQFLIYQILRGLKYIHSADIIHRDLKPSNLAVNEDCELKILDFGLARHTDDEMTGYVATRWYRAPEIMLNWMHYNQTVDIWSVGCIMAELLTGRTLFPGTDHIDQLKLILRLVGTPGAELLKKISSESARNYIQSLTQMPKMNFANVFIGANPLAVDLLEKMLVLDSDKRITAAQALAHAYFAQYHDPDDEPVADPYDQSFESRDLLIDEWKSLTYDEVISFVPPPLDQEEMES

| Structure (SMILES) | melting point [°C] | other results |
| --- | --- | --- |
| COc1ccc(C(=O)Nc2cc(NC(=O)c3cccc(NS(C)(=O)=O)c3)ccc2C)cc1OC [Example 1, N-[5-(3-methanesulphonylaminobenzamido)-2-methylphenyl]-3,4-dimethoxybenzamide] | > 300 | – |
| COc1ccc(C(=O)Nc2cc(NC(=O)c3ccc(OCCCCl)cc3)ccc2C)cc1OC [Example 3, N-{5-[4-(3-chloropropoxy)benzamido]-2-methylphenyl}-3,4-dimethoxybenzamide] | 186 to 187 | – |
| COc1ccc(C(=O)Nc2cc(NC(=O)c3ccc(OCCN4CCCC4)cc3)ccc2C)cc1OC [Example 4, N-{5-[4-(2-pyrrolidin-1-ylethoxy)benzamido]-2-methylphenyl}-3,4-dimethoxybenzamide] | 165 to 166 | – |
| COc1ccc(C(=O)Nc2cc(NC(=O)c3ccc(OCCCN4CCOCC4)cc3)ccc2C)cc1OC [Example 5, Compound No. 3, N-{2-methyl-5-[4-(3-morpholinopropoxy)benzamido]phenyl}-3,4-dimethoxybenzamide] | 148 to 149 | – |
| Cc1ccc(NC(=O)c2cccc(N3CCOCC3)c2)cc1NC(=O)c1cccc(OCCN2CCCC2)c1 [Example 7, Compound No. 19, N-[2-methyl-5-(3-morpholinobenzamido)phenyl]-3-(2-pyrrolidin-1-ylethoxy)benzamide] | – | IC50 [1]: ~100 nM; IC50 [2]: ~1000 nM; IC50 [3]: ~6000 nM |
| COCCOc1ccc(C(=O)Nc2cc(NC(=O)c3ccc(C#N)cc3)ccc2C)cc1 [Example 8, N-[5-(4-cyanobenzamido)-2-methylphenyl]-4-(2-methoxyethoxy)benzamide] | – | IC50 [1]: ~100 nM; IC50 [2]: ~3000 nM |
| COc1ccc(C(=O)Nc2cc(NC(=O)c3cccc(OCC(=O)O)c3)ccc2C)cc1OC [Example 18, N-[5-(3-carboxymethoxybenzamido)-2-methylphenyl]-3,4-dimethoxybenzamide] | 206 to 207 | – |
| COc1ccc(C(=O)Nc2cc(NC(=O)c3ccc(N(C)CCCN(C)C)cc3)ccc2C)cc1OC [Example 20, N-{5-[4-(N-(3-dimethylaminopropyl)-N-methylamino)benzamido]-2-methylphenyl}-3,4-dimethoxybenzamide] | 164 to 165 | – |
| Cc1ccc(NC(=O)c2cccc(N3CCOCC3)c2)cc1NC(=O)c1cccc(OC2CCNCC2)c1 [Example 25, N-[2-methyl-5-(3-morpholinobenzamido)phenyl]-3-piperidin4-yloxybenzamide] | 162 to 166 | – |
| CCS(=O)(=O)Nc1cccc(C(=O)Nc2ccc(C)c(NC(=O)c3ccc(OC)c(OC)c3)c2)c1 [Example 26, N-{5-[3-(N-methylmethanesulphonylamino)benzamido]-2′-methylphenyl}-3,4-dimethoxybenzamide] | 168 to 169 | – |
| Cc1ccc(NC(=O)c2cccc(N(C)C)c2)cc1NC(=O)c1cccc(NS(C)(=O)=O)c1 [Example 27, N-[5-(3-dimethylaminobenzamido)-2-methylphenyl]-3-methanesulphonylaminobenzamide] | 239 to 240 | – |
| Cc1ccc(NC(=O)c2cccc(N(C)C)c2)cc1NC(=O)c1ccccc1NCCCN1CCOCC1 [Example 35, N-[5-(3-dimethylaminobenzamido)-2-methylphenyl]-2-(3-morpholinopropylamino)benzamide] | 239 to 240 | – |
| Cc1ccc(NC(=O)c2cccc(N(C)C)c2)cc1NC(=O)c1ccc(N(C)CCCN(C)C)cc1 [Example 36, N-[5-(3-dimethylaminobenzamido)-2-methylphenyl]-4-(3-dimethylamino-N-methylpropylamino)benzamide] | 178 to 179 | – |
| CCCS(=O)(=O)Nc1cccc(C(=O)Nc2cc(NC(=O)c3cccc(N4CCOCC4)c3)ccc2C)c1 [Example 62, N-[2-methyl-5-(3-morpholinobenzamido)phenyl]-3-(N-ethylmethanesulphonylamino)benzamide] | 192 to 193 | – |
